Reference: patent US7384734B2, “Compositions and methods for determining the susceptibility of a pathogenic virus to protease inhibitors” (Monogram Biosciences, Inc., priority 2002, dated 2008)

Test system: HIV-1 from patient plasma samples
Assay: PHENOSENSE HIV phenotypic drug susceptibility assay (fold change in IC50 versus NL4-3 reference strain)
Type: cell-based
Description: A “fold change” is a numeric comparison of the drug susceptibility of a patient virus and a drug-sensitive reference virus. It is the ratio of the Patient IC50 to the drug-sensitive reference IC50, i.e., Patient IC50/Reference IC50=Fold Change (“FC”). […] A fold change less than 1 indicates the patient virus is more sensitive than the drug-sensitive reference virus. […] A fold change less than the clinical cutoff value means the patient virus is sensitive to that drug.
In one embodiment, the phenotypic analysis is performed using PHENOSENSE™ (ViroLogic Inc., South San Francisco, Calif.). See Petropoulos et al., 2000, Antimicrob. Agents Chemother. 44:920-928; U.S. Pat. Nos. 5,837,464 and 6,242,187. PHENOSENSE™ is a phenotypic assay that achieves the benefits of phenotypic testing and overcomes the drawbacks of previous assays.
A resistance test vector (“RTV”) can then be constructed by incorporating the amplified viral gene sequences into a replication defective viral vector by using any method known in the art of incorporating gene sequences into a vector. In one embodiment, restrictions enzymes and conventional cloning methods are used. See Maniatis et al., 1989, Molecular Cloning: A Laboratory Manual, Cold Spring Harbor Laboratory, N.Y. and Ausubel et al., 1989, Current Protocols in Molecular Biology, Greene Publishing Associates and Wiley Interscience, N.Y. In some embodiments, ApaI and PinAI restriction enzymes are used. Preferably, the replication defective viral vector is the indicator gene viral vector (“IGVV”). In some embodiments, the viral vector contains a means for detecting replication of the RTV. Preferably, the viral vector contains a luciferase expression cassette.
The assay can be performed by first co-transfecting host cells with RTV DNA and a plasmid that expresses the envelope proteins of another retrovirus, for example, amphotropic murine leukemia virus (MLV). Following transfection, virus particles can be harvested and used to infect fresh target cells. The completion of a single round of viral replication can be detected by the means for detecting replication contained in the vector. In one embodiment, the completion of a single round of viral replication results in the production of luciferase. Serial concentrations of anti-viral agents can be added at either the transfection step or the infection step.
Susceptibility to the anti-viral agent can be measured by comparing the replication of the vector in the presence and absence of the anti-viral agent. For example, susceptibility to the anti-viral agent can be measured by comparing the luciferase activity in the presence and absence of the anti-viral agent. Susceptible viruses would produce low levels of luciferase activity in the presence of anti-viral agents, whereas viruses with reduced susceptibility would produce higher levels of luciferase activity.
The phenotypic assay was conducted using the PHENOSENSE™ (Virologic, South San Francisco, Calif.) HIV assay (Petropoulos et al., 2000, Antimicrob. Agents Chemother. 44:920-928; U.S. Pat. Nos. 5,837,464 and 6,242,187). Plasma samples were collected from HIV-1-infected patients. Repeat samples from the same patient were removed to prevent possible bias resulting from unique combinations of mutations.
The genotype data was obtained by sequencing the protease of the HIV-1 present in each patient's sample and determining the sequence changes with respect to the sequence of the NL4-3 (GenBank Accession No. AF324493) HIV. The amino sequence for the NL4-3 protease is provided in SEQ. ID. No. 1 (FIG. 12A) and the nucleic acid sequence for the NL4-3 protease gene is provided in SEQ. ID. No. 2 (FIG. 12B).

[1] = genotype group: 32, 46, 47, 54, n=4
[2] = genotype group: 32, 47, 54, 84, n=5
[3] = genotype group: 32, 47, 54, n=17
[4] = genotype group: 46 (M46I or L), 54, n=16
[5] = genotype group: 46, 54, 84, n=29
[6] = genotype group: 47, 54, 84, n=3
[7] = genotype group: 54 (I54L or M only), n=9
[8] = genotype group: not containing any tested mutation, n=1096
[9] = genotype group: protease mutation 32, n=26
[10] = genotype group: wild-type (all primary positions), n=623

SMILES	median FC in each group (each group carrying APV resistance mutations (Table 9))	Median FC (genotype group: 32, 46, 47, 54, 84, n=6)	Median FC [1]	Median FC [2]	Median FC [3]	Median FC (genotype group: 32, 47, n=23)	Median FC (genotype group: 32, 84, n=3)	Median FC [4]	Median FC [5]	Median FC [6]	Median FC (genotype group: 47, 54, n=3)	Median FC (genotype group: 47, 84, n=4)	Median FC (genotype group: 47, n=8)	Median FC (genotype group: 50, n=42)	Median FC [7]	Median FC (genotype group: 54, 84, n=22)	Median FC (genotype group: 84, n=247)	Median FC [8]	Median FC [9]	Median FC [10]
CC(C)CN(C[C@@H](O)[C@H](Cc1ccccc1)NC(=O)O[C@H]1CCOC1)S(=O)(=O)c1ccc(N)cc1 [APV, amprenavir]	≥ 9.5 fold	130	130	130	40	12	51	84	47	24	42	12	26	20	22	67	11	1.6	9.5	0.6
Cc1cccc(C)c1OCC(=O)N[C@@H](Cc1ccccc1)[C@@H](O)C[C@H](Cc1ccccc1)NC(=O)[C@H](C(C)C)N1CCCNC1=O [LPV, lopinavir]			208	227	146	7.5	124	138	30	20	88	28		54	160	93	7.1	2.1	12	0.6
